Laboratory results reported in the supplement of paper PMC11451515.

What was measured:
Conditions in all cases: 48 h
[1] = system: SEM cells; assay: cell viability relative to DMSO control; higher = less cytotoxic
Method in brief: (§1)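 Viability, reported as a per-plate percentage of DMSO wells with cell-free wells as background, came from CellTiter-Glo One luminescence. Reading took place after 48 h at 37°C. Before that, NOMO1 or SEM (500 cells/well) or P12-Ichikawa (1000 cells/well) leukemia cells, adapted for at least four passages in each medium, were seeded in 1536-well plates (5 μl) and pin-dosed with library compounds in DMSO, 47 μM to 0.79 nM over 11 threefold points.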

[2] = system: NOMO1; assay: as above
Method in brief: as §1

[3] = system: P12-Ichikawa; assay: AUC of viability dose-response curve (% viability x log10 dose units); higher = less sensitive
Method in brief: (§2)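 Over 48 h at 37°C, leukemia cells in 1536-well plates (500 or 1000 cells/well), adapted to each medium, received library compounds in DMSO at 11 threefold doses from 47 μM to 0.79 nM. CellTiter-Glo One luminescence, normalised per plate to DMSO and cell-free wells, was fitted by a four-parameter log-logistic function of log10 dose. The area under the curve was then integrated by trapezoidal rule, after scaling curves above full viability and removing those that failed quality control.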

[4] = system: SEM cells; assay: as above
Method in brief: as §2

[5] = system: NOMO1; assay: as above
Method in brief: as §2

[6] = system: P12-Ichikawa; assay: cell viability relative to DMSO control; higher = less cytotoxic
Method in brief: as §1

c1ccc(CNc2nc(NCc3ccccc3)c3ccccc3n2)cc1
cell viability [%], HPLM + 10% dialyzed FBS
Conditions | [1] | [2]
0.000781 µM | 104 | 92.7
0.00234 µM | 116 | 114
0.00702 µM | 117 | 144
0.0211 µM | 125 | 121
0.0632 µM | 130 | 138
0.19 µM | 132 | 134
0.569 µM | 136 | 148
1.71 µM | 127 | 158
5.12 µM | 136 | 132
15.4 µM | 133 | 118
46.1 µM | 32.5 | 5.97

AUC of viability dose-response curve
Conditions | [3] | [4] | [5]
HPLM + 10% dialyzed FBS | 473 | 440 | 450
RPMI 5 mM glucose + 10% FBS | 465 | 462 | 466
RPMI 5 mM glucose + 10% dialyzed FBS | 465 | 470 | 463

CC(C)c1onc(-c2c(Cl)cccc2Cl)c1COc1ccc(/C=C/c2cccc(C(=O)O)c2)c(Cl)c1
cell viability [%]
Conditions | HPLM + 10% dialyzed FBS | RPMI 5 mM glucose + 10% FBS | RPMI 5 mM glucose + 10% dialyzed FBS
[1], 0.000781 µM | 122 | 117 | 119
[1], 0.00234 µM | 130 | 119 | 134
[1], 0.00702 µM | 114 | 109 | 120
[1], 0.0211 µM | 120 | 128 | 146
[1], 0.0632 µM | 121 | 127 | 132
[1], 0.19 µM | 129 | 120 | 128
[1], 0.569 µM | 115 | 105 | 118
[1], 1.71 µM | 116 | 120 | 117
[1], 5.12 µM | 125 | 115 | 115
[1], 15.4 µM | 108 | 106 | 104
[1], 46.1 µM | 91.5 | 85.7 | 95.1
[2], 0.000781 µM | – | – | 128
[2], 0.00234 µM | – | – | 124
[2], 0.00702 µM | – | – | 124
[2], 0.0211 µM | – | – | 139
[2], 0.0632 µM | – | – | 114
[2], 0.19 µM | – | – | 133
[2], 0.569 µM | – | – | 129
[2], 1.71 µM | – | – | 132
[2], 5.12 µM | – | – | 128
[2], 15.4 µM | – | – | 109
[2], 46.1 µM | – | – | 107

AUC of viability dose-response curve
Conditions | [3] | [4] | [5]
HPLM + 10% dialyzed FBS | 450 | 466 | 454
RPMI 5 mM glucose + 10% FBS | 445 | 465 | 447
RPMI 5 mM glucose + 10% dialyzed FBS | 452 | 443 | 466

COc1ccc(CCC(=O)c2c(O)cc(O[C@@H]3O[C@H](CO)[C@@H](O)[C@H](O)[C@H]3O[C@@H]3O[C@@H](C)[C@H](O)[C@@H](O)[C@H]3O)cc2O)cc1O
cell viability [%]
Conditions | [1] | [2] | [6]
HPLM + 10% dialyzed FBS, 0.000781 µM | 112 | 105 | 115
HPLM + 10% dialyzed FBS, 0.00234 µM | 115 | 138 | 117
HPLM + 10% dialyzed FBS, 0.00702 µM | 120 | 124 | 116
HPLM + 10% dialyzed FBS, 0.0211 µM | 128 | 122 | 110
HPLM + 10% dialyzed FBS, 0.0632 µM | 128 | 120 | 119
HPLM + 10% dialyzed FBS, 0.19 µM | 119 | 124 | 116
HPLM + 10% dialyzed FBS, 0.569 µM | 128 | 117 | 117
HPLM + 10% dialyzed FBS, 1.71 µM | 119 | 102 | 113
HPLM + 10% dialyzed FBS, 5.12 µM | 134 | 91.2 | 107
HPLM + 10% dialyzed FBS, 15.4 µM | 124 | 36.1 | 107
HPLM + 10% dialyzed FBS, 46.1 µM | 116 | 42.7 | 38.8
RPMI 5 mM glucose + 10% FBS, 0.000781 µM | – | 118 | –
RPMI 5 mM glucose + 10% FBS, 0.00234 µM | – | 140 | –
RPMI 5 mM glucose + 10% FBS, 0.00702 µM | – | 114 | –
RPMI 5 mM glucose + 10% FBS, 0.0211 µM | – | 123 | –
RPMI 5 mM glucose + 10% FBS, 0.0632 µM | – | 119 | –
RPMI 5 mM glucose + 10% FBS, 0.19 µM | – | 119 | –
RPMI 5 mM glucose + 10% FBS, 0.569 µM | – | 111 | –
RPMI 5 mM glucose + 10% FBS, 1.71 µM | – | 107 | –
RPMI 5 mM glucose + 10% FBS, 5.12 µM | – | 114 | –
RPMI 5 mM glucose + 10% FBS, 15.4 µM | – | 45.2 | –
RPMI 5 mM glucose + 10% FBS, 46.1 µM | – | 20.7 | –
RPMI 5 mM glucose + 10% dialyzed FBS, 0.000781 µM | – | 118 | 105
RPMI 5 mM glucose + 10% dialyzed FBS, 0.00234 µM | – | 121 | 115
RPMI 5 mM glucose + 10% dialyzed FBS, 0.00702 µM | – | 119 | 118
RPMI 5 mM glucose + 10% dialyzed FBS, 0.0211 µM | – | 119 | 116
RPMI 5 mM glucose + 10% dialyzed FBS, 0.0632 µM | – | 135 | 108
RPMI 5 mM glucose + 10% dialyzed FBS, 0.19 µM | – | 116 | 114
RPMI 5 mM glucose + 10% dialyzed FBS, 0.569 µM | – | 117 | 111
RPMI 5 mM glucose + 10% dialyzed FBS, 1.71 µM | – | 113 | 113
RPMI 5 mM glucose + 10% dialyzed FBS, 5.12 µM | – | 110 | 107
RPMI 5 mM glucose + 10% dialyzed FBS, 15.4 µM | – | 40.2 | 106
RPMI 5 mM glucose + 10% dialyzed FBS, 46.1 µM | – | 34.4 | 105

AUC of viability dose-response curve
Conditions | [3] | [4] | [5]
HPLM + 10% dialyzed FBS | 458 | 464 | 413
RPMI 5 mM glucose + 10% FBS | 442 | 455 | 426
RPMI 5 mM glucose + 10% dialyzed FBS | 463 | 465 | 425

COc1cc2c(cc1OC)[C@@H]1Cc3ccc(OC)c(OC)c3CN1CC2
cell viability [%]
Conditions | [1] | [2] | [6]
HPLM + 10% dialyzed FBS, 0.000781 µM | 94.1 | 120 | 110
HPLM + 10% dialyzed FBS, 0.00234 µM | 123 | 129 | 114
HPLM + 10% dialyzed FBS, 0.00702 µM | 118 | 115 | 114
HPLM + 10% dialyzed FBS, 0.0211 µM | 123 | 105 | 113
HPLM + 10% dialyzed FBS, 0.0632 µM | 114 | 118 | 118
HPLM + 10% dialyzed FBS, 0.19 µM | 119 | 110 | 117
HPLM + 10% dialyzed FBS, 0.569 µM | 121 | 112 | 112
HPLM + 10% dialyzed FBS, 1.71 µM | 122 | 117 | 106
HPLM + 10% dialyzed FBS, 5.12 µM | 117 | 114 | 112
HPLM + 10% dialyzed FBS, 15.4 µM | 109 | 99.4 | 99.1
HPLM + 10% dialyzed FBS, 46.1 µM | 109 | 31.2 | 94.5
RPMI 5 mM glucose + 10% FBS, 0.000781 µM | 110 | 98.1 | –
RPMI 5 mM glucose + 10% FBS, 0.00234 µM | 108 | 101 | –
RPMI 5 mM glucose + 10% FBS, 0.00702 µM | 103 | 94.8 | –
RPMI 5 mM glucose + 10% FBS, 0.0211 µM | 111 | 97.1 | –
RPMI 5 mM glucose + 10% FBS, 0.0632 µM | 104 | 106 | –
RPMI 5 mM glucose + 10% FBS, 0.19 µM | 109 | 104 | –
RPMI 5 mM glucose + 10% FBS, 0.569 µM | 99.3 | 97.6 | –
RPMI 5 mM glucose + 10% FBS, 1.71 µM | 93.9 | 101 | –
RPMI 5 mM glucose + 10% FBS, 5.12 µM | 99.4 | 102 | –
RPMI 5 mM glucose + 10% FBS, 15.4 µM | 102 | 92.7 | –
RPMI 5 mM glucose + 10% FBS, 46.1 µM | 78.4 | 34.3 | –
RPMI 5 mM glucose + 10% dialyzed FBS, 0.000781 µM | 97.9 | 112 | 111
RPMI 5 mM glucose + 10% dialyzed FBS, 0.00234 µM | 108 | 114 | 117
RPMI 5 mM glucose + 10% dialyzed FBS, 0.00702 µM | 113 | 116 | 119
RPMI 5 mM glucose + 10% dialyzed FBS, 0.0211 µM | 112 | 107 | 109
RPMI 5 mM glucose + 10% dialyzed FBS, 0.0632 µM | 129 | 96.5 | 110
RPMI 5 mM glucose + 10% dialyzed FBS, 0.19 µM | 124 | 109 | 110
RPMI 5 mM glucose + 10% dialyzed FBS, 0.569 µM | 108 | 95.6 | 124
RPMI 5 mM glucose + 10% dialyzed FBS, 1.71 µM | 133 | 97.8 | 117
RPMI 5 mM glucose + 10% dialyzed FBS, 5.12 µM | 122 | 106 | 109
RPMI 5 mM glucose + 10% dialyzed FBS, 15.4 µM | 120 | 103 | 97.2
RPMI 5 mM glucose + 10% dialyzed FBS, 46.1 µM | 82.2 | 56 | 80.3

AUC of viability dose-response curve
Conditions | [3] | [4] | [5]
HPLM + 10% dialyzed FBS | 467 | 473 | 452
RPMI 5 mM glucose + 10% FBS | 444 | 449 | 458
RPMI 5 mM glucose + 10% dialyzed FBS | 461 | 477 | 464
